Results published in patent US8455523B2, “Compositions and methods for treating hyperlipidemias” (The Research Foundation of State University of New York, priority 2010, dated 2013).

Experiments:
[1] = system: C57Bl/6J mice fed western diet; assay: MTP inhibitor CP-346086 with or without lovastatin or WY14643 in western diet fed mice: plasma/hepatic lipids, AST/ALT; assay type: in vivo; settings: WD 8 weeks
Procedure: FIGS. 4a and 4b. Effect of MTP inhibitor (CP-34086) on plasma lipids and lipoproteins in C57Bl/6J mice fed western diet ad libitum for 8 weeks. MTP inhibitor solubilzed in DMSO was administered orally for one week (15 mg/kg/day) along with either DMSO (MTPi), lovastatin (50 mg/kg/day), or WY14643 (10 mg/kg/day). Control mice were gavaged with DMSO only.
FIGS. 5a and 5b. Liver samples from FIG. 4 were used to measure MTP activity (A) and hepatic lipids (B-E). Stars on MPTi group represent comparison between Control and MTPi groups.
Control group (n=4) received daily oral gavage of DMSO alone. MTPi group received 15 mg/kg/day MTP inhibitor CP-346086 (MTPi) once daily. […] Plasma total and HDL cholesterol were unaffected by MTPi. Combined treatment of MTPi and lovastatin decreased plasma LDL cholesterol. […] Next, we measured changes in plasma hepatic enzymes (FIGS. 4G-H). […] These studies indicate that apart from lowering plasma triglyceride, MTPi enhances plasma AST/ALT and these increases can be avoided by the co-administration of lovastatin.

Reversa mice = system: Reversa mice
Procedure: FIG. 11. Reversa animals were injected with plpC every other day for one week. Lovastatin, T-090317 and WY14643 were administered by oral gavage everyday for 30 days after the first injection. Animals were sacrificed on day 30 and plasma and livers were harvested and analyzed. * represent comparison to PBS injected animals and # represent comparisons to plpC control.
Animals: Mttp^tm2Sgy LdIr^tm1Her Apob^tm2Sgy Tg(Mx1-cre)1Cgn/J mice (Reversa) (stock number 004192) were obtained from Jackson Laboratories. Male reversa mice were used to study the effect of mttp gene deletion on plasma and tissue lipids. These animals are transgenic for apolipoprotein B, LDLR^−/− and floxed at exon 1 of the mttp locus. In addition, these mice express cre recombinase under the control of the Mx1 promoter, which is induced after intraperitoneal injection of polyinosinic polycytidylic ribonucleic acid (plpC—Sigma) in the liver, spleen and intestine. Injection of plpC activates the cre recombinase and deletes the mttp gene in the liver and intestines. Reversa mice were injected with either PBS or plpC. Mice injected with plpC were orally gavaged with DMSO (Sigma-Aldrich D8418), DMSO+Lovastatin (50 mg/kg/day) (Calbiochem 438186), DMSO+T0901317 (50 mg/kg/day) (Calbiochem 575310), or DMSO+WY14643 (10 mg/kg/day) (Calbiochem 681725). Mice injected with plpC were also injected with either PBS or Ω-3 fatty acids (SUNY Downstate Medical Center). All animals were given supplemental treatments for 30 days.
All animals were kept in 07:00-19:00 h lighting schedule. […] Food was withdrawn 16 h before the sacrifice of the mice. On the day of the experiment, mice were anesthetized and blood was collected from the heart. Liver was collected, washed in ice-cold PBS, cut into small pieces and used for lipid extraction, histological staining, to measure different protein activities/quantities and for mRNA analysis. Lipids were extracted from the tissue homogenates following the Bligh and Dyer method. Triglyceride (Infinity TM Triglyceride, TR22421) and total cholesterol (Infinity TM Cholesterol, TR13421) levels in the tissues were determined using commercial kits (Thermo Scientific). Free cholesterol and free fatty acid levels were measured using kits from Wako Chemicals (Germany). Esterified cholesterol was calculated by subtracting the free cholesterol from the total cholesterol.
To determine whether accumulation of hepatic triglyceride and free cholesterol is related to increases in plasma AST/ALT, we sought to reduce these lipids using different chemical compounds of known physiologic effects. Mice injected with plpC were orally gavaged with DMSO, DMSO+Lovastatin (50 mg/kg/day), DMSO+T0901317 (50 mg/kg/day), or DMSO+WY14643 (10 mg/kg/day). Lovastatin (Lova), an HMG-CoA reductase (HMGR) inhibitor, and T0901317 (T0), an LXR agonist, are expected to decrease hepatic free cholesterol by inhibiting endogenous cholesterol synthesis and increasing cholesterol efflux, respectively. WY14643 (WY), a PPARα agonist, increases β-oxidation of fatty acids and lowers hepatic triglycerides.
To evaluate the efficacy of Ω-3 FA in reducing hepatic triglyceride, plpC injected mice were treated with intraperitoneal injection of Ω-3 FA (3 mg/kg/2 day) or Ω-3 FA and Lova.

MTP = target: T1, MTP (Mus musculus, UniProt O08601); assay: Determination of MTP activity in tissues (liver homogenates of treated mice); assay type: in vivo; settings: Reversa mice, plpC vs PBS
T1 construct: small pieces (0.1 g) of liver and ˜1-cm segments of proximal small intestine were homogenized; from tissue; host or cells: mouse liver (C57BL/6J; Reversa mice in some experiments); supernatant of ultracentrifuged homogenate
T1 sequence (O08601 22-894): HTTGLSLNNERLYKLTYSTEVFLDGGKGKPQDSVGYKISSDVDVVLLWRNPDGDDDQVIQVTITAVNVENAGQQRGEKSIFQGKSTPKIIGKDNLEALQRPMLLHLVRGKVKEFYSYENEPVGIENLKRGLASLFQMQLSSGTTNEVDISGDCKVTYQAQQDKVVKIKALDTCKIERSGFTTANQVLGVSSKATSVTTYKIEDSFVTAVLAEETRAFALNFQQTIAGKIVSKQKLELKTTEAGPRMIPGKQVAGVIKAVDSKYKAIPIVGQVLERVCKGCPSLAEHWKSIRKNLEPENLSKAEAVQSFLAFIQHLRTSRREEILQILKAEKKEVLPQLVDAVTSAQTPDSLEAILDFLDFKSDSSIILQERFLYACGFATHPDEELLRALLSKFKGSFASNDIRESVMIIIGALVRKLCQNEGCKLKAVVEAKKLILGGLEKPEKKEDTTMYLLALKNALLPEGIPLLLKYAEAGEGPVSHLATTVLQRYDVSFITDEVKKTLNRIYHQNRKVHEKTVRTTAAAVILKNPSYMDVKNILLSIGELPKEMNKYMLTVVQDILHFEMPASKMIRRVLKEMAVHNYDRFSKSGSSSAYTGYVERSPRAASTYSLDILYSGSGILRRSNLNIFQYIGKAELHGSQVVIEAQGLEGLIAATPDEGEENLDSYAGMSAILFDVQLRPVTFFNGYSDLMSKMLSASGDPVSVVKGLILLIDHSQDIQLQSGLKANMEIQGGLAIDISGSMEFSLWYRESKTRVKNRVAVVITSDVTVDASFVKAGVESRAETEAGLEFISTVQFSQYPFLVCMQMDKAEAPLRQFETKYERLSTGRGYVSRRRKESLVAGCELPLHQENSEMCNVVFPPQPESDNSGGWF
T1 sequence (P09103 21-509 partner limits assumed): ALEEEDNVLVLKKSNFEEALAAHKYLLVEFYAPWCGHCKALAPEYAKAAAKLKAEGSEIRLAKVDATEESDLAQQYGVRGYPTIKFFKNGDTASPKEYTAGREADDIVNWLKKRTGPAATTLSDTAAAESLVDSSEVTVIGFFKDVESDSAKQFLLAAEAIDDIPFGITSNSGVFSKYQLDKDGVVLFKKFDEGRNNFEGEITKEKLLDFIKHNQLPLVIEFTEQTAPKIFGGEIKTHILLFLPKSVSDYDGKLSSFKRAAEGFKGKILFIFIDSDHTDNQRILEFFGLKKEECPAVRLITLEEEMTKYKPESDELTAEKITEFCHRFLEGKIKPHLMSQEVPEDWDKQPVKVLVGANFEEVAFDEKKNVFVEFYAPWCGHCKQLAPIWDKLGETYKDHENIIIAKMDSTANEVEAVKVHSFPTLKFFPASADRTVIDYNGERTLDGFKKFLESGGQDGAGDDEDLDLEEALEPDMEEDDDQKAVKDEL
Procedure: After extensive washes with ice-cold PBS, small pieces (0.1 g) of liver and ˜1-cm segments of proximal small intestine were homogenized with 1 ml of ice-cold 1 mM Tris-HCl, pH 7.6, 1 mM EGTA, and 1 mM MgCl2 buffer in a glass homogenizer. The homogenates were centrifuged (SW55 Ti rotor, 50,000 rpm, 10° C., 1 h), and supernatants were used for MTP assay as described before (41; 42) using a kit (Chylos, Inc.).

[2] = CP-346086 15 mg/kg/day oral 1 week, vs control
[3] = MTP deficient (plpC) Reversa mice, oral 30 days
[4] = plpC-injected Reversa mice, Lova 50, T0 50, WY 10 mg/kg/day oral or Ω-3 FA 3 mg/kg/2 day ip, vs plpC control

## O=C(Nc1ccc2c(c1)CCN(Cc1ncn[nH]1)C2)c1ccccc1-c1ccc(C(F)(F)F)cc1 [CP-346086]
[1]; CP-346086 15 mg/kg/day 1 week ± lovastatin 50 or WY14643 10 mg/kg/day, MTPi vs control, co-drugs vs MTPi
  plasma AST/ALT: significantly enhanced
[1]; [2]
  Plasma total and HDL cholesterol: unaffected
  plasma total and LDL triglyceride, and LDL cholesterol: significantly lower

## O=S(=O)(c1ccccc1)N(CC(F)(F)F)c1ccc(C(O)(C(F)(F)F)C(F)(F)F)cc1 [T0901317]
Reversa mice; [3]
  plasma cholesterol: no effect
  plasma triglycerides: no effect
Reversa mice; [4]
  hepatic free and total cholesterol: significantly reduced
  hepatic triglyceride: no effect

## polyinosinic polycytidylic ribonucleic acid [plpC]
MTP
  reduction of hepatic MTP activity compared to controls: ~75%
Reversa mice; Reversa mice, plpC vs PBS
  decrease in non-HDL-cholesterol: ~40%
  decrease of plasma total triglyceride and cholesterol: 50%
  increase of hepatic free cholesterol: 50%
  increase of hepatic triglyceride: 2 fold
  increase of plasma ALT and AST: 2-3 fold
  reduction of hepatic cholesteryl esters (CE): ~30%
